Results reported in patent US20100113334A1, “METHODS FOR REDUCING OR PREVENTING TRANSMISSION OF NOSOCOMIAL PATHOGENS IN A HEALTH CARE FACILITY” (priority 2003, published 2010).

What was measured:
[1] = Storage stability of ramoplanin granules for oral solution; type: physicochemical
Method: The contents of the packet can be reconstituted with approximately 15-30 mL of water, and the resulting solution either consumed directly, or further diluted with water, cranberry juice, apple juice, or 7-Up prior to drinking. After consumption, the drug may be followed with subsequent amounts of these beverages or with food (e.g., cracker, bread). […] Alternatively, ramoplanin is available as capsules containing pharmaceutically acceptable excipients that are generally regarded as safe.

[2] = test system: Bacteroides species; experiment: Effect on indigenous stool microflora (Example 3), quantitative culture; type: in vivo, mice; conditions: 100 μg/mL in drinking water, seven days
[3] = test system: facultative and aerobic gram-negative bacilli; experiment: as above; type: in vivo, mice
[4] = test system: K. pneumoniae P62; experiment: Establishment of colonization during ramoplanin treatment (Example 6); type: in vivo, mice; conditions: inoculated on day 2 of a 6-day course, 100 μg/ml in drinking water
Method: (§1) Quantification of Stool Pathogens: Fresh stool specimens were processed as described by Donskey et al. (supra). In order to quantify VRE, K. pneumoniae, and C. glabrata, diluted samples were plated onto Enterococcosel agar containing vancomycin 20 μg/mL, MacConkey agar containing ceftazidime 10 μg/mL, or Sabouraud Dextrose Agar (Becton, Dickinson, and Company, Sparks, Md.) containing piperacillin/tazobactam 16 μg/mL and linezolid 8 μg/mL, respectively. The plates were incubated in room air at 37° C. far 24 or 48 hours, and the number of colony-forming units (CFU) of each pathogen per gram of sample was calculated.
The density of the pathogens in stool was monitored every 3-4 days. Four mice were included in each treatment group.

[5] = test system: VRE C68; experiment: Eradication of VRE stool colonization in mice (Example 2); type: in vivo
Method: as §1
High-density VRE stool colonization was established in mice by administering subcutaneous clindamycin (1.4 mg) once each day for 2 days before and 7 days after orogastric inoculation of 10^6 colony-forming units (CFU) of VRE C68 using a stainless steel feeding tube (Perfektum, Popper & Sons, New Hyde Park, N.Y.). […] Six mice were included in each treatment group.
To evaluate the possibility that ramoplanin-treated mice were being re-exposed to VRE from their environment, broth-enrichment cultures for VRE were performed as previously described Ray et al. (JAMA 287: 1400-1401, 2002) after contacting cage bottoms and tops, water bottles, and food with pre-moistened cotton-tipped swabs.

[6] = test system: yeast; experiment: Activity on stool microflora of healthy volunteers (Example 7.1); type: in vivo, human; conditions: 10 days BID
Method: (§2) The predetermined dose was reconstituted in 5 mL water per vial, mixed with 50 mL of sweetened, aromatized solution, and immediately administered orally to the subjects.
(§3) Faecal microbial concentrations (organisms per gram of faecal matter) were determined at the following timepoints: day-4 (pre-treatment), days 4 and 10 (treatment), and days […] and 24 (follow-up). Tolerability and absorption were also investigated.

[7] = test system: Gram-positive bacteria (staphylococci, streptococci, enterococci); experiment: as above; type: in vivo, human
Method: as §2, §3

[8] = test system: Gram-negative bacteria (enteric bacteria and Bacteroides spp.); experiment: as above; type: in vivo, human; conditions: 10 days BID
Method: as §2, §3

[9] = test system: E faecalis; conditions: 30 strains; cited from earlier work
[10] = day 8 of 100 μg/ml drinking water, 8 mice

Ramoplanin
stability of 400 mg granulated powder packets ([1]; refrigerated conditions): stable for at least one year
shelf life of reconstituted aqueous solution ([1]; stored at refrigerated conditions): 48 h
mean density of Bacteroides species in stool [2]: not significantly affected
mean density of total facultative and aerobic gram-negative bacilli in stool ([3]; 3 days after discontinuation (day 10)): not significantly different from baseline
mean density of total facultative and aerobic gram-negative bacilli in stool ([3]; day 7 of treatment, P<0.05): increased significantly
overgrowth of K. pneumoniae P62 in stool [4]: facilitated overgrowth
mice that developed a recurrence of colonization after discontinuing treatment ([5]; 100 μg/ml in drinking water): One hundred
mice that developed a detectable recurrence of colonization after discontinuing treatment ([5]; 500 μg/ml in drinking water): 50%
levels of VRE in stool during treatment ([5]; 100 or 500 μg/ml in drinking water, 8 days, P<0.0001 vs controls): undetectable levels
mice with VRE detectable in sections of the cecal lining [5, 10]: 25%
mice with negative stool and cecal content cultures for VRE [5, 10]: 100%
level of VRE in sections of the cecal lining ([5]; the 2 positive mice, day 8 of 100 μg/ml drinking water): 2-3 log10 CFU/g
effect on faecal yeast [6]: no effect
faecal concentrations of staphylococci, streptococci, and enterococci ([7]; by day 10, all subjects): below the level of detection
effect on faecal Gram-positive bacteria ([7]; first measurement on day 4): marked effect
effect on faecal Gram-negative bacteria [8]: no effect
Ramoplanin MIC90 [9]: 0.5 µg/mL
